“And” between values parts separate entries of the source, which are not always exact repeats. Identical values can stand only once.

The subject of one data set is TERT promoter or exon 1. The experiment in a line: Efficiency of tested Cas9 guide sequences (indel formation after RNP delivery). Format: cell-based, human. As to conditions: 3 days post-editing; Cas9 guide targeting TERT promoter or exon 1; replicates 1 and 2 listed separately. On the procedure:
Guide sequences for all genes were determined by empirically testing multiple guides per gene for cutting efficiency (on the extreme end, we tested around 40 Cas9 guide sequences for TERT before settling on one that works).
Applicants also determined guide RNAs for introducing indels at the TERT gene (FIG. 12).
Mutations were first engineered into CDKN2A (‘C’), BRAF (‘B’), and TERT (‘T’) (FIGS. 19A-19G). Lesions in these three genes happen early in melanoma pathogenesis and are exceptionally common, co-occurring events (Akbani et al. Cell 161:1681-1696 (2015)) that have been hypothesized to suffice for malignant transformation (Shain et al. Nat Rev Cancer 16:345-358 (2016); Shain et al. N Engl J Med 373:1926-1936 (2015)). After electroporation of Cas9 ribonucleoprotein complex (RNP) (Rimm et al. Am J Pathol 154:325-329 (1999)) targeting CDKN2A exon 2, the only exon shared by both p16 and p14 protein products, small insertions and deletions (‘indels’) in the gene underwent natural positive selection during cell culture from a 90-95% allele frequency at day three to nearly 100% by day 42 (FIG. 19A). Into these CDKN2A knockout (‘C’) melanocytes, Applicants next introduced the BRAF V600E mutation by co-delivering Cas9 RNP targeting BRAF exon 15 together with a homologous DNA donor encoding the V600E mutation. Recombinant adeno-associated virus (rAAV) was used to deliver the DNA donor (Rimm et al. Am J Pathol 154:325-329 (1999)) in order to increase the low editing efficiency over plasmid or single-stranded oligodeoxynucleotide donors (data not shown; Dever et al. Nature 539:384-389 (2016)). Over roughly 150 days in culture, the BRAF V600E allele increased from a frequency of 6% at day 3 to nearly 100% at day 155 (FIG. 19B). Finally, into these CDKN2A knockout, BRAF V600E mutant (‘CB’) melanocytes, Applicants introduced the −124C>T (also known as C228T) TERT promoter mutation by co-delivery of Cas9 RNP targeting TERT exon 1 together with a homologous DNA donor encoding TERT −124C>T. The −124C>T TERT promoter mutation allele shifted from a stable allele frequency of 3-5% over the first 30 days in culture to roughly 50% by day 75, and stayed at roughly 50% for more than 300 days of continuous culture (FIG. 19C; this 50% frequency is further discussed below). Engineering the TERT promoter mutation was the most technically difficult of these three mutations, and required testing forty different Cas9 guide sequences to identify a potent reagent for making double stranded breaks near the TERT promoter locus (Table 9), possibly due to the high G:C content or closed chromatin state at this locus (Yeh et al. Nat Commun 8:644 (2017)).
Cas9 protein, tracrRNA, and crRNAs (‘guides’, Table 20) were purchased and prepared according to manufacturer's instructions (IDT). To generate RNP complexes, 3-6 μg Cas9 and 45 pmol previously annealed crRNA:trRNA were incubated together for 10 minutes at 25° C. before delivery by electroporation. To target CDKN2A, two crRNAs were mixed at a molar ratio of 1:1 (22.5 pmol crRNA 1: 22.5 pmol crRNA 2) and incubated with 3 μg Cas9.
Electroporation was performed using the Lonza Nucleofector 4D System (program: EO-208) and P3 Primary Cell Nucleofector Kit (Lonza), according to manufacturer's instructions, with optional inclusion of 100 pmol electroporation enhancer (IDT 1075916). After electroporation, cells were incubated with 80 μL of warm media for 10 minutes at 37° C. to enhance recovery and were directly transferred into a tissue culture plate.
DNA was extracted using QuickExtract DNA Extraction Solution following recommended guidelines (Epicentre). Target genomic loci were amplified using gene-specific primers (Table 21) that included universal handles for later attachment of barcoded Illumina adaptors using an additional round of PCR. […]
Take “1 (guide TGGGAGGGCCCGGAGGGGGC; chemistry not given here) [compound 1]”: the “% Indel Post-Editing” value was 0.1686% and 0.2057%.
For the substance “2 (guide GTCCCCGGCCCAGCCCCCTC; chemistry not given here) [compound 2]”, the “% Indel Post-Editing” value was 0.29% and 0.6087%.
Same read-out and setting: as for “3 (guide TCCCCGGCCCAGCCCCCTCC; chemistry not given here) [compound 3]”, the figure is 0.2836% and 0.473%; as for “4 (guide GGGGCTGGGAGGGCCCGGAG; chemistry not given here) [compound 4]”, 0.2787% and 0.05972%.
On the same count and under the same terms, as for “5 (guide GGGCTGGGAGGGCCCGGAGG; chemistry not given here) [compound 5]”, the figure is 0.3738% and 0.4065%; as for “6 (guide GGGAGGGCCCGGAGGGGGCT; chemistry not given here) [compound 6]”, 0.3562% and 0.3112%; as for “7 (guide GAGGGGCTGGGAGGGCCCGG; chemistry not given here) [compound 7]”, 0.2257% and 0.1728%.
On to “16 (guide GGCCGCGGAAAGGAAGGGGA; chemistry not given here) [compound 16]”, for which the “% Indel Post-Editing” value was 0.1942% and 0.09556%.
Still for that read-out and setting: as for “17 (guide GAAACTCGCGCCGCGAGGAG; chemistry not given here) [compound 17]”, the figure is 0.03391% and 0.163%; as for “18 (guide GCCCCTCCCCTTCCTTTCCG; chemistry not given here) [compound 18]”, 2.299% and 1.045%.
Turning to “19 (guide TGCCTGAAACTCGCGCCGCG; chemistry not given here) [compound 19]”, the “% Indel Post-Editing” value was 0.3096% and 0.2587%.
Same read-out and setting: as for “20 (guide GCGGGGCCGCGGAAAGGAAG; chemistry not given here) [compound 20]”, the figure is 0.1376% and 0.1734%; as for “21 (guide AAACTCGCGCCGCGAGGAGA; chemistry not given here) [compound 21]”, 0.5362% and 0.5957%.
On the same count and under the same terms, for “22 (guide GGCGGGGCCGCGGAAAGGAA; chemistry not given here) [compound 22]” the value was 1.212% and 0.3044%; for “23 (guide GCCGCGGAAAGGAAGGGGAG; chemistry not given here) [compound 23]”, 0.7353% and 0.8087%.
Still for that read-out and setting: for “24 (guide GGGCCGCGGAAAGGAAGGGG; chemistry not given here) [compound 24]” the value was 0.19% and 0.2632%; for “25 (guide GGAAAGGAAGGGGAGGGGCT; chemistry not given here) [compound 25]”, 0.6945% and 1.088%; for “26 (guide GCTGCGCAGCCACTACCGCG; chemistry not given here) [compound 26]”, 9.609% and 9.23%.
Turning to “27 (guide TGGCCAGCGGCAGCACCTCG; chemistry not given here) [compound 27]”, the “% Indel Post-Editing” value is 13.61% and 13.93%.
Still for that read-out and setting: for “28 (guide GGGGAGCGCGCGGCATCGCG; chemistry not given here) [compound 28]” the value was 1.175% and 1.846%; for “29 (guide GCTGCGCAGCAGGGAGCGCA; chemistry not given here) [compound 29]”, 0.5165% and 0.5841%.
The same measure, in the same setting: as for “31 (guide CCACGTTCGTGCGGCGCCTG; chemistry not given here) [compound 31]”, the figure is 3.555% and 3.026%; as for “32 (guide TGCCGCTGGCCACGTTCGTG; chemistry not given here) [compound 32]”, 0.1665% and 0.1061%; as for “33 (guide CGCCGCACGAACGTGGCCAG; chemistry not given here) [compound 33]”, 2.925% and 2.489%.
Same read-out and setting: for “34 (guide GCGGTAGTGGCTGCGCAGCA; chemistry not given here) [compound 34]” the value was 27.04% and 29.27%.
For “35 (guide CTACCGCGAGGTGCTGCCGC; chemistry not given here) [compound 35]”, the “% Indel Post-Editing” value was 1.038% and 1.547%.
For “36 (guide GCGGCAGCACCTCGCGGTAG; chemistry not given here) [compound 36]”, the “% Indel Post-Editing” value is 2.113% and 1.684%.
Same read-out and setting: for “37 (guide GGGAGCGCACGGCTCGGCAG; chemistry not given here) [compound 37]” the value was 5.208% and 5.478%.
Same read-out and setting: as for “38 (guide GGAGCGCACGGCTCGGCAGC; chemistry not given here) [compound 38]”, the figure is 0.8353% and 1.797%; as for “39 (guide GAGCGCACGGCTCGGCAGCG; chemistry not given here) [compound 39]”, 6.049% and 7.137%.
Still for that read-out and setting: for “40 (guide GCTCGGCAGCGGGGAGCGCG; chemistry not given here) [compound 40]” the value was 14.09% and 12.53%.

Staying with this data set, now noted: 5 days post-editing; Cas9 guide targeting TERT promoter or exon 1; replicates 1 and 2 listed separately.
Take “8 (guide GGGGGCTGGGCCGGGGACCC; chemistry not given here) [compound 8]”: the “% Indel Post-Editing” value was 0.1929% and 0.225%.
For “9 (guide GGCTGGGCCGGGGACCCGGG; chemistry not given here) [compound 9]”, the “% Indel Post-Editing” value is 0.5674% and 0.398%.
On the same count and under the same terms, for “10 (guide GCTGGGCCGGGGACCCGGGA; chemistry not given here) [compound 10]” the value was 0.3155% and 0.389%; for “11 (guide CTGGGCCGGGGACCCGGGAG; chemistry not given here) [compound 11]”, 0.2288% and 0.2733%.
Still for that read-out and setting: for “12 (guide GCCGGGGACCCGGGAGGGGT; chemistry not given here) [compound 12]” the value was 0.1682% and 0.08339%; for “13 (guide CCGGGGACCCGGGAGGGGTC; chemistry not given here) [compound 13]”, 0.06603% and 0.05525%.
For “14 (guide CGCCCCGTCCCGACCCCTCC; chemistry not given here) [compound 14]”, the “% Indel Post-Editing” value is 0.04851% and 0.09263%.
In the case of “15 (guide GCCCCGTCCCGACCCCTCCC; chemistry not given here) [compound 15]”, the “% Indel Post-Editing” value is listed as 0.375%.

The values are drawn from patent US20200157563A1, “METHODS OF PRODUCING HUMAN CANCER CELL MODELS AND METHODS OF USE” (The Broad Institute, Inc., priority 2017, published 2020).
